In US12239643B2, “Therapeutic agent for inflammatory diseases, autoimmune diseases, fibrotic diseases, and cancer diseases” (MEIJI SEIKA PHARMA CO., LTD., priority 2018, dated 2025):
Read-outs that look alike come from different tables or passages of the source.

Test system: PDE4
Assay: Evaluation of PDE4 inhibitory activity, scintillation proximity assay
Format: biochemical
Details: scintillation proximity assay
Outline: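 IC50 was derived from inhibition curves, referenced to an enzyme-free blank and a DMSO-only control. Compound, PDE4 preparation and tritiated cAMP reacted 120 min at RT in Tris-HCl buffer (pH 7.4) with MgCl2, EGTA and BSA; YSi-SPA beads with ZnSO4 bound product before scintillation counting.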

[1] = read-out: PDE4 Inhibitory Activity (Evaluation 1; concentration for the inhibition rate of 50%)
[2] = class symbols of Evaluation 1, read-out: PDE4 Inhibitory Activity (concentration for the inhibition rate of 50%, IC50), Evaluation 1

SMILES | IC50 [1] | IC50 [2]
CC(=O)c1cc(-c2nccs2)c2oc(N3CC4CCC(C3)N4)nc2c1OC(F)(F)F [Example 213, 1-(2-(3,8-Diazabicyclo[3.2.1]octan-3-yl)-7-(thiazol-2-yl)-4-(trifluoromethoxy)benzo[d]oxazol-5-yl)ethan-1-one] | < 100 nM | 
OC1(COC(c2ccc(-c3nccs3)c3oc(N4CC5CC(C4)N5)nc23)C(F)(F)F)CC1 (centres unmarked) [Example 232, 1-((1-(2-(3,6-Diazabicyclo[3.1.1]heptan-3-yl)-7-(thiazol-2-yl)benzo[d]oxazol-4-yl)-2,2,2-trifluoroethoxy)methyl)cyclopropan-1-ol] | < 100 nM | 
O=C(O)c1cc(-c2nccs2)c2oc(N3CC4CC(C3)N4)nc2c1OC(F)(F)F [Example 190, 2-(3,6-Diazabicyclo[3.1.1]heptan-3-yl)-7-(thiazol-2-yl)-4-(trifluoromethoxy)benzo[d]oxazole-5-carboxylic acid] | > 1000 nM | 
N#CCOC(c1cc(-c2nccs2)c2oc(N3CC4CC(C3)N4)nc2c1)C(F)(F)F (centres unmarked) [Example 152, 2-(1-(2-(3,6-Diazabicyclo[3.1.1]heptan-3-yl)-7-(thiazol-2-yl)benzo[d]oxazol-5-yl)-2,2,2-trifluoroethoxy)acetonitrile] |  | < 100 nM
COc1cc(-c2nccs2)c2oc(N3CC4CC(C3)N4)nc2c1 [Example 61, 2-(3,6-Diazabicyclo[3.1.1]heptan-3-yl)-5-methoxy-7-(thiazol-2-yl)benzo[d]oxazole] |  | < 100 nM
FC(F)(F)Oc1cc(-c2nccs2)c2oc(N3CC4CC(C3)N4)nc2c1 [Example 56, 2-(3,6-Diazabicyclo[3.1.1]heptan-3-yl)-7-(thiazol-2-yl)-5-(trifluoromethoxy)benzo[d]oxazole] |  | < 100 nM
COCC(O)COc1ccc(-c2nccs2)c2oc(N3CC4CCC(C3)N4)nc12 (centres unmarked) [Example 83, 1-((2-(3,8-Diazabicyclo[3.2.1]octan-3-yl)-7-(thiazol-2-yl)benzo[d]oxazol-4-yl)oxy)-3-methoxypropan-2-ol] |  | < 100 nM
OC(c1ccc(-c2nccs2)c2oc(N3CC4CC(C3)N4)nc12)C(F)F (centres unmarked) [Example 125, 1-(2-(3,6-Diazabicyclo[3.1.1]heptan-3-yl)-7-(thiazol-2-yl)benzo[d]oxazol-4-yl)-2,2-difluoroethan-1-ol] |  | < 100 nM
CC(O)(c1cc(-c2nccs2)c2oc(N3CC4CCC(C3)N4)nc2c1OC(F)(F)F)C(F)(F)F (centres unmarked) [Example 217, 2-(2-(3,8-Diazabicyclo[3.2.1]octan-3-yl)-7-(thiazol-2-yl)-4-(trifluoromethoxy)benzo[d]oxazol-5-yl)-1,1,1-trifluoropropan-2-ol] | < 100 nM | 
CC(=O)Nc1cc(-c2nccs2)c2oc(N3CC4CC(C3)N4)nc2c1 [Example 49, N-(2-(3,6-diazabicyclo[3.1.1]heptan-3-yl)-7-(thiazol-2-yl)benzo[d]oxazol-5-yl)acetamide] |  | 100 to 1000 nM
COC(C)c1ccc(-c2nccs2)c2oc(N3CC4CCCC(C3)N4)nc12 (centres unmarked) [Example 243, 2-(3,9-Diazabicyclo[3.3.1]nonan-3-yl)-4-(1-methoxyethyl)-7-(thiazol-2-yl)benzo[d]oxazole] | < 100 nM | 
CC(O)COC(c1cc(-c2nccs2)c2oc(N3CC4CCC(C3)N4)nc2c1)C(F)(F)F (centres unmarked) [Example 155, 1-(1-(2-(3,8-Diazabicyclo[3.2.1]octan-3-yl)-7-(thiazol-2-yl)benzo[d]oxazol-5-yl)-2,2,2-trifluoroethoxy)propan-2-ol] |  | < 100 nM
COC(c1cc(-c2nccs2)c2oc(N3CC4CCC(C3)N4)nc2c1OC(F)(F)F)C(F)F (centres unmarked) [Example 209, 2-(3,8-Diazabicyclo[3.2.1]octan-3-yl)-5-(2,2-difluoro-1-methoxyethyl)-7-(thiazol-2-yl)-4-(trifluoromethoxy)benzo[d]oxazole] | < 100 nM | 
OC(c1cc(-c2cscn2)c2oc(N3CC4CC(C3)N4)nc2c1OC(F)(F)F)C(F)F (centres unmarked) [Example 301, 1-(2-(3,6-Diazabicyclo[3.1.1]heptan-3-yl)-7-(thiazol-4-yl)-4-(trifluoromethoxy)benzo[d]oxazol-5-yl)-2,2-difluoroethan-1-ol] | < 100 nM | 
